Experimental data from paper PMC8869984, “Multifunctional Silver(I) Complexes with Metronidazole Drug Reveal Antimicrobial Properties and Antitumor Activity against Human Hepatoma and Colorectal Adenocarcinoma Cells” (Cancers, 2022).
pIC50: −log10 of the molar value.

What was measured:
[1] = system: HepG2 cells; test: MTT assay (mitochondrial activity), 72 h exposure; type: cell-based, human; conditions: mean ± SD, n = 3
Method: (§1) The human hepatoma (HepG2) and colorectal adenocarcinoma (Caco-2) cells were purchased from the American Type Culture Collection: ATCC HB-8065 and ATCC HTB-37, respectively. These cells were cultured in Minimum Essential Medium Eagle (MEME) (ATCC). The murine fibroblasts cell line (Balb/c 3T3 clone A31) (gift from the Department of Swine Diseases of the National Veterinary Research Institute in Pulawy) was cultured in Dulbecco’s Modified Eagle Medium (DMEM) (ATCC). The media were supplemented with 10% BCS (Balb/c 3T3), 10% FBS (HepG2), 20% FBS (Caco-2), 1% L-glutamine, 1% antibiotic solution. The cells were maintained in 75 cm^2 cell culture flasks (NUNC) in a humidified incubator at 37 °C in an atmosphere of 5% CO2. The medium was refreshed every two or three days, and the cells were trypsinized by 0.25% trypsin–0.02% EDTA after reaching 70–80% confluence. Single cell suspensions were prepared and adjusted to a density of 2 × 10^5 cell/mL^−1 (HepG2), 1 × 10^5 cell/mL^−1 (Caco-2) and 5 × 10^4 cell/mL^−1 (Balb/c 3T3). The cell suspension was transferred to 96-well plates (100 µL/well) and incubated for 24 h before the exposure to the studied compounds. Stock solutions of ligands and metal complexes were prepared in sterile water and diluted with culture medium to obtain a concentration range from 0.1 to 10 µM. The final concentration of sterile water was 0.1% in the medium. […] As a negative control, cultured cells were grown in the absence of studied compounds. Each concentration was tested in six replicates in three independent experiments. Cytotoxicity was assessed after 72 h of exposure of the cells to compounds. The medium was not changed during the incubation time.
The metabolic activity of living cells was assessed by the measurement of the activity of dehydrogenases. […] The plate was shaken for 15 min at room temperature and transferred to a microplate reader Synergy HTX multi-mode reader (BioTek® Instruments Inc., Winooski, VT, USA) to measure the absorbance at 570 nm, using a blank as a reference. Cytotoxicity was expressed as a percentage of the negative control. […]

[2] = system: HepG2 cells; test: NRU assay (lysosomal activity), 72 h exposure; type: cell-based, human; conditions: mean ± SD, n = 3
Method: as §1
This method is based on staining living cells with neutral red, which readily diffuses through the plasma membrane and accumulates in lysosomes. […] After 10 min of shaking, the absorbance of the dissolved NR was measured using a Synergy HTX multi-mode reader (BioTek® Instruments Inc., Winooski, VT, USA) at 540 nm using a blank as a reference. Cytotoxicity was expressed as a percentage of the negative control. […]

[3] = system: S. aureus ATCC 25923; test: micro-dilution broth method (MIC, MBC); type: cell-based, Staphylococcus aureus
[4] = system: S. epidermidis ATCC 12228; test: micro-dilution broth method (MIC, MBC); type: cell-based, Staphylococcus epidermidis
[5] = system: M. luteus ATCC 10240; test: micro-dilution broth method (MIC, MBC); type: cell-based, Micrococcus luteus
[6] = system: B. cereus ATCC 10876; test: micro-dilution broth method (MIC, MBC); type: cell-based, Bacillus cereus
[7] = system: E. faecalis ATCC 29212; test: micro-dilution broth method (MIC, MBC); type: cell-based, Enterococcus faecalis
[8] = system: A. israeli ATCC 10049; test: micro-dilution broth method (MIC, MBC); type: cell-based, Actinomyces israelii
[9] = system: S. typhimurium ATCC 14028; test: micro-dilution broth method (MIC, MBC); type: cell-based, Salmonella Typhimurium
[10] = system: E. coli ATCC 25922; test: micro-dilution broth method (MIC, MBC); type: cell-based, Escherichia coli
[11] = system: P. aeruginosa ATCC 9027; test: micro-dilution broth method (MIC, MBC); type: cell-based, Pseudomonas aeruginosa
[12] = system: B. fragilis ATCC 10240; test: micro-dilution broth method (MIC, MBC); type: cell-based, Bacteroides fragilis
[13] = system: P. intermedia ATCC 25611; test: micro-dilution broth method (MIC, MBC); type: cell-based
[14] = system: V. parvula ATCC 10790; test: micro-dilution broth method (MIC, MBC); type: cell-based, Veillonella parvula
[15] = S. aureus ATCC 25923, value in brackets
[16] = S. epidermidis ATCC 12228, value in brackets
[17] = M. luteus ATCC 10240, value in brackets
[18] = B. cereus ATCC 10876, value in brackets
[19] = E. faecalis ATCC 29212, value in brackets
[20] = A. israeli ATCC 10049, value in brackets
[21] = S. typhimurium ATCC 14028, value in brackets
[22] = E. coli ATCC 25922, value in brackets
[23] = P. aeruginosa ATCC 9027, value in brackets
[24] = B. fragilis ATCC 10240, value in brackets
[25] = P. intermedia ATCC 25611, value in brackets
[26] = V. parvula ATCC 10790, value in brackets

## O=S(=O)([O-])[O-].[Ag+].[Ag+] [Ag2SO4, silver sulfate]
[1]
  pIC50: < 5.00
[2]
  pIC50: < 5.00
[3]; S. aureus ATCC 25923
  MBC: 31.3 mg/L
  MIC: 15.6 mg/L
[3]; [15]
  MBC: 0.1 µM/mL
  MIC: 0.05 µM/mL
[4]; S. epidermidis ATCC 12228
  MBC: 31.3 mg/L
  MIC: 15.6 mg/L
[4]; [16]
  MBC: 0.1 µM/mL
  MIC: 0.05 µM/mL
[5]; M. luteus ATCC 10240
  MBC: 125 mg/L
  MIC: 15.6 mg/L
[5]; [17]
  MBC: 0.4 µM/mL
  MIC: 0.05 µM/mL
[6]; B. cereus ATCC 10876
  MBC: 500 mg/L
  MIC: 31.3 mg/L
[6]; [18]
  MBC: 1.6 µM/mL
  MIC: 0.1 µM/mL
[7]; E. faecalis ATCC 29212
  MBC: 125 mg/L
  MIC: 31.3 mg/L
[7]; [19]
  MBC: 0.4 µM/mL
  MIC: 0.1 µM/mL
[8]; A. israeli ATCC 10049
  MBC: 15.6 mg/L
  MIC: 0.98 mg/L
[8]; [20]
  MBC: 0.05 µM/mL
  MIC: 0.003 µM/mL
[9]; S. typhimurium ATCC 14028
  MBC: 250 mg/L
  MIC: 31.3 mg/L
[9]; [21]
  MBC: 0.8 µM/mL
  MIC: 0.1 µM/mL
[10]; E. coli ATCC 25922
  MBC: 62.5 mg/L
  MIC: 62.5 mg/L
[10]; [22]
  MBC: 0.2 µM/mL
  MIC: 0.2 µM/mL
[11]; P. aeruginosa ATCC 9027
  MBC: 125 mg/L
  MIC: 62.5 mg/L
[11]; [23]
  MBC: 0.4 µM/mL
  MIC: 0.2 µM/mL
[12]; B. fragilis ATCC 10240
  MBC: 1000 mg/L
  MIC: 250 mg/L
[12]; [24]
  MBC: 3.2 µM/mL
  MIC: 0.8 µM/mL
[13]; P. intermedia ATCC 25611
  MBC: 7.8 mg/L
  MIC: 7.8 mg/L
[13]; [25]
  MBC: 0.025 µM/mL
  MIC: 0.025 µM/mL
[14]; V. parvula ATCC 10790
  MBC: 62.5 mg/L
  MIC: 62.5 mg/L
[14]; [26]
  MBC: 0.2 µM/mL
  MIC: 0.2 µM/mL

## O=[N+]([O-])[O-].[Ag+] [AgNO3, Silver nitrate]
[3]; S. aureus ATCC 25923
  MBC: 31.3 mg/L
  MIC: 7.8 mg/L
[3]; [15]
  MBC: 0.185 µM/mL
  MIC: 0.049 µM/mL
[4]; S. epidermidis ATCC 12228
  MBC: 15.6 mg/L
  MIC: 3.9 mg/L
[4]; [16]
  MBC: 0.09 µM/mL
  MIC: 0.025 µM/mL
[5]; M. luteus ATCC 10240
  MBC: 31.3 mg/L
  MIC: 3.9 mg/L
[5]; [17]
  MBC: 0.185 µM/mL
  MIC: 0.025 µM/mL
[6]; B. cereus ATCC 10876
  MBC: 62.5 mg/L
  MIC: 31.3 mg/L
[6]; [18]
  MBC: 0.37 µM/mL
  MIC: 0.185 µM/mL
[7]; E. faecalis ATCC 29212
  MBC: 31.3 mg/L
  MIC: 15.6 mg/L
[7]; [19]
  MBC: 0.185 µM/mL
  MIC: 0.09 µM/mL
[8]; A. israeli ATCC 10049
  MBC: 0.49 mg/L
  MIC: 0.49 mg/L
[8]; [20]
  MBC: 0.003 µM/mL
  MIC: 0.003 µM/mL
[9]; S. typhimurium ATCC 14028
  MBC: 15.6 mg/L
  MIC: 15.6 mg/L
[9]; [21]
  MBC: 0.09 µM/mL
  MIC: 0.09 µM/mL
[10]; E. coli ATCC 25922
  MBC: 15.6 mg/L
  MIC: 7.8 mg/L
[10]; [22]
  MBC: 0.09 µM/mL
  MIC: 0.049 µM/mL
[11]; P. aeruginosa ATCC 9027
  MBC: 3.9 mg/L
  MIC: 3.9 mg/L
[11]; [23]
  MBC: 0.025 µM/mL
  MIC: 0.025 µM/mL
[12]; B. fragilis ATCC 10240
  MBC: 62.5 mg/L
  MIC: 15.6 mg/L
[12]; [24]
  MBC: 0.37 µM/mL
  MIC: 0.09 µM/mL
[13]; P. intermedia ATCC 25611
  MBC: 0.49 mg/L
  MIC: 0.49 mg/L
[13]; [25]
  MBC: 0.003 µM/mL
  MIC: 0.003 µM/mL
[14]; V. parvula ATCC 10790
  MBC: 15.6 mg/L
  MIC: 7.8 mg/L
[14]; [26]
  MBC: 0.09 µM/mL
  MIC: 0.049 µM/mL
